The text below walks through data of US4886886A, “Substituted 1,3,4,9-tetrahydropyrano[3,4-b]indole-1-acetic acids” (American Home Products Corporation, priority 1988, dated 1989).

Molecules are shown by their SMILES.

In one assay the test system is Adjuvant Edema. Briefly: Preventative Adjuvant Edema. It is filed as in vivo, Male Sprague Dawley rats. Particulars: rat, given days 0, 1 and 2, edema volume on day 3; for Preventative Adjuvant Edema, percent inhibition: 25 mg/kg p.o. How it is done:
This test is a primary screen for anti-inflammatory drugs.
Male Sprague Dawley rats (180-200 g) are used. The animals have free access to water but food is withdrawn 18 hours before testing.
Drug Preparations and Administration:
Freund's complete adjuvant is prepared by suspending 5 mg of killed and dried Mycobacterium butyricum (Difco) in 1 mL mineral oil. The test compounds are dissolved, or suspended in 0.5% Tween 80 in distilled water according to their solubility. For primary screening all drugs are administered by gastric lavage at the arbitrary dosage of 25 mg/kg, p.o. in a volume of 0.5 mL/100 g body weight to groups of 10 animals.
The method is essentially that described by Wax et al, J. Pharmacol. Exp. Ther., 192, 166-171 (1975). Groups of rats are injected intradermally in the left hind paw with 0.1 mL of Freund's complete adjuvant. The test compound or vehicle is administered immediately before the adjuvant, 24 hours and 48 hours after the adjuvant (days 0, 1 and 2). The injected hind paw volume is measured before the injection of adjuvant and 24 hrs. after the last drug administration (day 3) by means of a plethysmometer (Buxco Electronics Inc.). The difference between the hind paw volume on day 0 and day 3 represents the edema volume. Etodolac (25 mg/kg, p.o.) is included as a positive control.
The mean edema volume (expressed as mL±SEM) is calculated for each group and the percentage protection conferred by the drug is calculated: [formula] where c is the mean edema volume for the vehicle-treated (0.5% Tween 80 in distilled water) controls and t is the mean edema volume for the drug treated group.

Assay [1] has as its system Phenylbenzoquinone-induced Writhing. Briefly: Drug Effects on Phenylbenzoquinone-induced Writhing in Mice. It is filed as in vivo, Male Swiss albino mice. Particulars: mouse, 60 min before PBQ. How it is done:
A further test used to determine the utility of the compounds of the present invention is designated: Drug Effects on Phenylbenzoquinone-induced Writhing in Mice
The objective of this test is to determine the ability of test drugs to inhibit the nociceptive (pain) response of mice injected with a chemical irritant. This test is a primary screen for both peripheral and centrally acting analgesic drugs.
Male Swiss albino mice (15-25 g). The animals are fasted for 18 hours prior to use but have free access to water.
(§1) Drug Preparation and Administration:
Drugs are dissolved or suspended according to their solubility in 0.5% Tween 80 in distilled water. They are administered by gastric gavage in a volume of 5 mL/kg. For primary screening all drugs are administered at the arbitary dosage of 25 mg/kg, p.o. to a group of 10 mice.
A modification of the method of Siegmund et al, Proc. Soc. Exp. Biol. Med., 95, 729-731 […] is used. Groups of 5 mice are dosed with the test compound or vehicle control. Sixty minutes later the animals are injected i.p. with 0.3 mL/20 g body weight of a 0.02% solution of phenylbenzoquinone (PBQ; 2-phenyl-1,4-benzoquinone) and placed in individual observation boxes. The number of writhing or abdominal squirming movements made by each mouse during the following 15 min. period is counted. The experiment is repeated with another group of 5 mice and the mean number of writhes per mouse for a group of 10 mice is calculated.
Drug treated and vehicle-treated control groups are compared and the percentage protection conferred by the drug is calculated: [formula]
where c=mean number of writhes in the control group
where t=mean number of writhes in the test drug group
For orientation: In writhing tests, fewer writhes than in controls are read as antinociception.

The subject of assay [2] is reaction of rats to painful stimulation applied to an inflamed paw. Briefly: Randall Selitto Test in the Rat. Format: in vivo, Male Sprague Dawley rats. As to conditions: po, by gastric gavage, 24 hours after adjuvant, pain threshold 1 hour later, read-out: Randall Selitto, ED50 (dose which causes analgesia in 50% of the animals).
Source text: An additional test used to determine the utility of the compounds of the present invention is designated: Randall Selitto Test in the Rat
The objective of this test is to assess the potency of peripheral and central acting drugs in inhibiting the reaction of rats to painful stimulation applied to an inflamed paw.
Male Sprague Dawley rats (180-200 g) are used. The animals are fasted overnight prior to drug administration.
as §1
Freund's Complete Adjuvant (FCA) is prepared by suspending 5 mg killed and dried mycobacterium butyricum (Difco) in 1 mL mineral oil. The test compounds are dissolved or suspended in 0.5% Tween 80 in distilled water according to their solubility. They are administered by gastric gavage in a volume of 0.5 mL/100 g body weight to groups of 10 animals.
Ten rats are used per group. The method is essentially that described by Randall and Selitto, Arch. Int. Pharmacodyn. […] The force is continuously monitored by a pointer moving along a linear scale and is measured in grams. […] The pain threshold (vocalization) is determined 1 hour later in the inflamed paw of the treated and control groups. […]
Each animal which has a reading 1.5 times greater than the mean reading of the control-group will be considered as responsive (having an analgesic effect) to treatment. The number of animals showing an analgesic effect is then determined in each group. […]

With `C=CCc1cccc2c3c([nH]c12)C(CC)(CC(=O)O)OCC3C` (single isomer, unassigned) [Example 3, 1-Ethyl-1,3,4,9-tetrahydro-4-methyl-8-(2-propenyl)-pyrano[3,4-b]indole-1-acetic Acid], the “Preventative Adjuvant Edema, percent inhibition” value in the assay on Adjuvant Edema came out at 57 percent inhibition. In assay [1] (10 mg/kg p.o.), the “Phenylquinone Writhing in Mice, percent inhibition” value stood at 20 percent inhibition.

As a reminder, the ED50 is the dose at which the effect has come halfway, by size or by number of responders. On to `C=CCc1c(F)ccc2c3c([nH]c12)C(CC)(CC(=O)O)OCC3` (stereo not shown) [Example 1, 1-Ethyl-7-fluoro-1,3,4,9-tetrahydro-8-(2-propenyl)-pyrano[3,4-b]indole-1-acetic Acid], for which, in the assay on Adjuvant Edema, the “Preventative Adjuvant Edema, percent inhibition” value is given as 83 percent inhibition. In addition, the ED50 in assay [1] (po, 1 h, p.o., read-out: Phenylquinone Writhing in Mice, ED50) came to 54.7 mg/kg; in assay [2] it was 0.7 mg/kg.

As to `C=CCc1cccc2c3c([nH]c12)C(CC)(CC(=O)O)OCC3` (stereo not shown) [Example 2, 1-Ethyl-1,3,4,9-tetrahydro-8-(2-propenyl)-pyrano[3,4-b]-1-acetic Acid], in the assay on Adjuvant Edema (po, 72 h, p.o.), the ED50 was 9 mg/kg. The “Phenylquinone Writhing in Mice, percent inhibition” value in assay [1] (200 mg/kg p.o.) was 42 percent inhibition.
